Molecular target: T1, catL (cathepsin L; rh catL) (Homo sapiens, UniProt P07711)
T1 construct: gene CTSL; incubated on ice 15 min in assay buffer pH 6.0 before use
Test: fluorogenic protease activity assay
Format: biochemical

T1 sequence (P07711 114-288): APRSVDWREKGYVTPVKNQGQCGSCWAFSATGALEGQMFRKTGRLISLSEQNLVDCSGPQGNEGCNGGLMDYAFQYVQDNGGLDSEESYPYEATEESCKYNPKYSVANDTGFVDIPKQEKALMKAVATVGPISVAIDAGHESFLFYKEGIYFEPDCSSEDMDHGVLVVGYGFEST
T1 sequence (P07711 292-333): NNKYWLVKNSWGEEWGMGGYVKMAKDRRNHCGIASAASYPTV

SMILES | IC50
CO[C@H]1/C=C/O[C@@]2(C)Oc3c(C)c(O)c4c(O)c(c(/C=N/N5CCN(C6CCCC6)CC5)c(O)c4c3C2=O)NC(=O)/C(C)=C\C=C\[C@H](C)[C@H](O)[C@@H](C)[C@@H](O)[C@@H](C)[C@H](OC(C)=O)[C@@H]1C [Rifapentine] | ~30 µM
C[C@@H]1[C@H](O)[C@@H](C)/C=C/C=C/CC/C=C/C=C/C=C/C=C/[C@H](O[C@@H]2O[C@H](C)[C@@H](O)[C@H](N)[C@@H]2O)C[C@@H]2O[C@](O)(C[C@@H](O)[C@H](O)CC[C@@H](O)C[C@@H](O)C[C@@H](O)CC(=O)O[C@H]1C)C[C@H](O)[C@H]2C(=O)O [Nystatin] | ~2 µM
